What all share (assay): inhibition of tumour cell growth, NCI panel, 48 h
The test system of experiment [1] is SNB-78.
The test system of experiment [2] is DMS-273.
Experiment [3] has as its system DLD-1.
Experiment [4] relates to XF498.
The subject of experiment [5] is HOP-18.
Experiment [6] concerns RXF 631.
Experiment [7] relates to Hs-578T.

SMILES strings stand for the structures.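 Values below derive from 48-hour exposures of cells grown in 96-well plates, with endpoints linearly interpolated between the two concentrations bracketing the appropriate inhibition level. GI50: concentration for 50% inhibition of growth.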 The source made the active and inactive calls. Rule as the data show it: active = GI50 up to about 1.1 µM and inactive = higher.

For the compound `NC1c2ccccc2Nc2ccccc21`, the GI50 in experiment [1] is 9.1 µM (inactive); in experiment [2], 4.52 µM (inactive); in experiment [3], 3.8 µM (inactive); in experiment [4] it was 3.16 µM (inactive); in experiment [5], 8.81 µM (inactive).

With `CCCc1c(C(=O)OCC)[nH]c(-c2ccc(-c3[nH]c(C(=O)OCC)c(CCC)c3C(=O)OCC)s2)c1C(=O)OCC`, the GI50 was > 100 µM (inactive) in experiment [1]; 30.7 µM (inactive) in experiment [2]; > 100 µM (inactive) in experiment [3]; 27.3 µM (inactive) in experiment [4]; > 100 µM (inactive) in experiment [5].

As for `O=C(/C=C\c1cccc2ccccc12)c1cccc2ccccc12`, the GI50 in experiment [1] was > 10 µM (inactive); in experiment [2] it was 9.08 µM (inactive); in experiment [3], 5.43 µM (inactive); in experiment [6], 7.89 µM (inactive); in experiment [4], 7.57 µM (inactive); in experiment [5] it was > 10 µM (inactive).

Consider `O=C1C2=C(C(c3ccccc3)=C1c1ccccc1)c1ccccc1C1(c3ccccc3)C2=C(O)C(c2ccccc2)=C1c1ccccc1` (stereo unspecified), for which the GI50 in experiment [1], in experiment [2], in experiment [3], in experiment [6] and in experiment [5] was > 100 µM (inactive) throughout.

Take `COc1cc(CC(=O)O)c([N+](=O)[O-])cc1OC`: the GI50 in experiment [1], in experiment [2], in experiment [3] and in experiment [6] was > 100 µM (inactive) each time.

Take `O=P(Oc1ccc2ccccc2c1)(N1CC1)N1CC1`: the GI50 in experiment [1] was > 100 µM (inactive); in experiment [2] it was 6.21 µM (inactive); in experiment [3], 92.3 µM (inactive); in experiment [4] it was 17.7 µM (inactive); in experiment [5], 22.6 µM (inactive).

Take `COC(=O)C1=C(C(=O)OC)C23CC4CCC2(C(=O)C1O3)C4(C)C` (stereo unspecified): the values for the GI50 in experiment [3], in experiment [4] and in experiment [5] were 57.1 µM (inactive), > 100 µM (inactive) and 95.9 µM (inactive), respectively.

For `COc1ccc(C(O)/C(=N\NC(N)=S)c2nc3ccc([N+](=O)[O-])cc3nc2O)cc1OC` (stereo unspecified), the GI50 was > 100 µM (inactive) in experiment [2]; > 100 µM (inactive) in experiment [3]; > 100 µM (inactive) in experiment [6]; > 100 µM (inactive) in experiment [4]; 44.2 µM (inactive) in experiment [5].

Regarding `CCN(CC)CCNC(=O)c1nn(C)c(=S)[nH]c1=S`, the GI50 in experiment [1], in experiment [2], in experiment [3], in experiment [4] and in experiment [5] was > 100 µM (inactive) throughout.

In the case of `C[C@]12CC[C@H](O)CC1=CC[C@@H]1C2CC[C@]2(C)Nc3c(cnn3-c3ccccc3)CC12` (stereo partly specified), the GI50 is 8.2 µM (inactive) in experiment [1], 0.869 µM (active) in experiment [2], 3.52 µM (inactive) in experiment [3] and 0.44 µM (active) in experiment [6].

As for `CC1=N/C(=C\c2ccc([N+](=O)[O-])cc2)C(=O)O1`, the GI50 in experiment [1], in experiment [3], in experiment [6] and in experiment [5] was > 100 µM (inactive) in each case.

Regarding `O=C(COC(=O)c1cccc2c(=O)c3ccccc3[nH]c12)Nc1ccc(C(=O)O)cc1`, the GI50 in experiment [1] was 59.3 µM (inactive); in experiment [3], > 100 µM (inactive); in experiment [6], > 100 µM (inactive); in experiment [4], 29.6 µM (inactive); in experiment [5] it was > 100 µM (inactive).

In the case of `N#Cc1c2c(c(N=P(c3ccccc3)(c3ccccc3)c3ccccc3)n3c1nc1ccccc13)CCCC2`, the GI50 in experiment [1] was 21.3 µM (inactive); in experiment [2], 14.5 µM (inactive); in experiment [3] it was 32.8 µM (inactive); in experiment [6], 29 µM (inactive); in experiment [5], 25.9 µM (inactive).

In the case of `O[C@]12c3ccccc3C1CCCCC2N1CCOCC1` (stereo partly specified), the GI50 in experiment [1], in experiment [2], in experiment [4] and in experiment [5] was > 100 µM (inactive) throughout.

Take `COC1=C(OC)C(=O)c2cc(SC)c(=O)c(SC)cc2C1=O`: the GI50 was 25.5 µM (inactive) in experiment [2], 28.4 µM (inactive) in experiment [3], 5.14 µM (inactive) in experiment [4] and 20.2 µM (inactive) in experiment [5].

Regarding `CCOC(OCC)C(CC)[Se]c1ccccc1[N+](=O)[O-]` (stereo unspecified), the GI50 in experiment [1] was 7.76 µM (inactive); in experiment [2], 1.01 µM (active); in experiment [3], 3.1 µM (inactive); in experiment [4], 2.92 µM (inactive); in experiment [5], 11.8 µM (inactive); in experiment [7], 3.18 µM (inactive).

Take `COC(=O)N/N=C(\Cc1ccccc1)CN(C)C`: the GI50 in experiment [1], in experiment [2], in experiment [3], in experiment [6] and in experiment [4] was > 100 µM (inactive) throughout.

Take `Cc1ccc(S(=O)(=O)N/N=C/c2oc(-c3cccc([N+](=O)[O-])c3)c(-c3cccc([N+](=O)[O-])c3)c2[N+](=O)[O-])cc1`: the GI50 is 32.2 µM (inactive) in experiment [3], 62.1 µM (inactive) in experiment [6], > 100 µM (inactive) in experiment [4] and > 100 µM (inactive) in experiment [5].

In the case of `CC[n+]1c(/C=C/c2ccc(N(CCCl)CCCl)cc2)ccc2cc(I)ccc21`, the GI50 in experiment [1] was 0.895 µM (active); in experiment [2], 0.525 µM (active); in experiment [3], 1.58 µM (inactive); in experiment [6], 1.77 µM (inactive); in experiment [5], 1.02 µM (active).

As to `COC(=O)C1CC2(CC3=C1CCCC3)OCCO2` (stereo unspecified), the GI50 in experiment [1], in experiment [2], in experiment [3], in experiment [6] and in experiment [4] was > 100 µM (inactive) each time.

Turning to `O=C1Oc2cc3c(c4cccc1c24)OCN(c1ccc(Cl)cc1)C3`, the GI50 in experiment [1] is > 100 µM (inactive); in experiment [2] it was 0.423 µM (active); in experiment [3], 5.42 µM (inactive); in experiment [4], 16.7 µM (inactive); in experiment [5] it was 34 µM (inactive).

`CCSC1=C(C)N(/C=N/C(C)(C)C)CC1`: the GI50 in experiment [1], in experiment [2], in experiment [3], in experiment [6], in experiment [4] and in experiment [5] was > 100 µM (inactive) in each case.

Turning to `CCOC(=O)C1=C(c2ccccc2)N(C(C)=O)Cc2ccccc21`, the GI50 in experiment [2] was 15.1 µM (inactive); in experiment [3], 28.7 µM (inactive); in experiment [4], 11.9 µM (inactive); in experiment [5], 28.1 µM (inactive).

For the compound `CC(C)(C)CC(C)(C)c1cc2c(O)c(c1)Cc1cc(C(C)(C)CC(C)(C)C)cc(c1O)Cc1cc(C(C)(C)CC(C)(C)C)cc(c1O)Cc1cc(C(C)(C)CC(C)(C)C)cc(c1O)Cc1cc(C(C)(C)CC(C)(C)C)cc(c1O)Cc1cc(C(C)(C)CC(C)(C)C)cc(c1O)C2`, the GI50 in experiment [1], in experiment [2], in experiment [3], in experiment [6] and in experiment [4] was > 100 µM (inactive) in each case.

In the case of `CCOc1ccccc1NC(=O)C1=C(C)NC(C)=C(C(=O)Nc2ccccc2OCC)C1c1ccc(NC(C)=O)cc1`, the results for the GI50 in experiment [1], in experiment [3] and in experiment [4] were 40.9 µM (inactive), 37 µM (inactive) and 9.68 µM (inactive), respectively.

In the case of `On1c(-c2ccccc2)c(-c2c(-c3ccccc3)n(O)c3ccccc23)c2ccccc21`, the GI50 is 35.7 µM (inactive) in experiment [1]; 39.6 µM (inactive) in experiment [2]; 54.6 µM (inactive) in experiment [3]; 19.8 µM (inactive) in experiment [4]; 26.1 µM (inactive) in experiment [5].

Regarding `N#CC(NNC(=O)c1ccccc1O)c1ccccc1` (stereo unspecified), the GI50 in experiment [1] was 0.9 µM (active); in experiment [2], 0.468 µM (active); in experiment [3], 2.63 µM (inactive); in experiment [5], 12.6 µM (inactive).

These data come from ChEMBL document CHEMBL1201862, “PubChem BioAssay data set” (2004).
